# US11208404B2 (PERENNA PHARMACEUTICALS, INC., priority 2017, dated 2021)
# “And” between values parts separate entries of the source, which are not always exact repeats. Equal entries are not always repeated. Where two headings read alike, the source gives them in different places.
# Columns and labels:
# ALCAT1 [1] = target: T1, ALCAT1 (Homo sapiens (Human), UniProt Q6UWP7); test: Cell-based assay for ALCAT inhibitor compounds (H9C2 cells); details: H9c2, 3 μM compound; H9C2 vector cell line and H9C2 with stable overexpression of ALCAT1
# Description: The assay was performed on the H9C2 vector cell line and H9C2 with stable overexpression of ALCAT1. Materials used in the protocol were CoA, LPG, compounds, chloroform, methanol, 0.9% KCl, 6-well-plates, 1.5 mL tubes, DMEM, FBS, P/S and PBS.
# Cells were seeded in 6-well-plates, 8×10^5 cells/well, and cultured at 37° C. in 5% CO2 overnight.
# Cells were washed once with ice-cold PBS, collected in ice-cold PBS and centrifuged at 5000 rpm for 5 min at 4° C. 200 μL of chloroform: methanol (2:1) was added to the cell pellet, which was vortexed to suspend the cells and incubated at RT for 1 hr.
# 40 μL of 0.9% KCl was added and the sample was vortexed before centrifugation at 10000 rpm for 5 min at RT. The aqueous phase (upper layer) was discarded and the organic phase (lower layer) was loaded to a TLC plate (10 cm×20 cm), 40 μL/sample.
# The plates were developed in chloroform: methanol: water (65:25:4) for about 30 min and scanned using a Typhoon Scanner. The bands intensity was analysed using ImageJ and the inhibition activity of the tested compounds was calculated.
# Compound inhibitors for ALCAT1 enzyme were analyzed by an in vitro cell-based assay as detailed above.
# Target sequence in this assay (Q6UWP7 whole entry, species assumed): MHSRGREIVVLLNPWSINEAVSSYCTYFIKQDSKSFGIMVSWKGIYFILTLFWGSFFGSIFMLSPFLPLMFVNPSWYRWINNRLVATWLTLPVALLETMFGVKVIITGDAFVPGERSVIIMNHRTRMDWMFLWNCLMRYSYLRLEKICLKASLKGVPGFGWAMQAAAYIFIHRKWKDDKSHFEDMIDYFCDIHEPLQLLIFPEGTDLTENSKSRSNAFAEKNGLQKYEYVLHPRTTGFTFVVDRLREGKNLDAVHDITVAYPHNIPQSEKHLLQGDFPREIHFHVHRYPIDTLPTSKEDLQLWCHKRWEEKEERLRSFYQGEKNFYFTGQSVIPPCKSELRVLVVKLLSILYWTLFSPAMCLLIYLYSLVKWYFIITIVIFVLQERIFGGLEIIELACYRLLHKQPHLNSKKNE
# ALCAT1 [2] = target: T1, ALCAT1; test: In vitro acyltransferase assay for ALCAT1 inhibitors; assay type: biochemical; details: for inhibition at 1 µM / % inh @ 1 μM: 1 μM compound; for inhibition at 1 µM / inhibition at 10 µM / % inh @ 1 μM / % inh @ 10 μM: in vitro enzymatic assay; for inhibition at 10 µM / % inh @ 10 μM: 10 μM compound; for IC50: ALCAT1 enzyme activity
# How it was run: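 Membrane fractions from Sf9 cells expressing human ALCAT1 incubated 30 min at room temperature with 100 µM MLCL or LPG and 25 µM [14C]acyl-CoA (or 100 µM NBD-CoA) in 50 mM Tris/HCl pH 7.0.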
# Target sequence in this assay (Q6UWP7 whole entry): as the sequence (Q6UWP7 whole entry, species assumed) above
# [3] = triplicates, GraphPad, read-out: IC50
# [4] = read-out: IC50 values (upper bounds)
inhibition at 3 µM (ALCAT1 [1]) [%],inhibition at 1 µM (ALCAT1 [2]) [%],inhibition at 10 µM (ALCAT1 [2]) [%],IC50 (ALCAT1 [2]; [3]) [nM],IC50 (ALCAT1 [2]; [4]) [nM],% inh @ 1 μM (ALCAT1 [2]),% inh @ 10 μM (ALCAT1 [2]),Structure (SMILES)
24,97,97,66,,,,"CCCOc1ccc(F)cc1C(=O)Nc1cc(-c2nnc(-c3ccco3)o2)ccc1F [Compound 210, 5-Fluoro-N-(2-fluoro-5-(5-(furan-2-yl)-1,3,4-oxadiazol-2-yl)phenyl)-2-propoxybenzamide]"
31,96,,30,< 100,,,"COc1ccc(C)cc1C(=O)Nc1cc(-c2nnc(-c3ccco3)o2)ccc1F [Compound 300, N-(2-Fluoro-5-(5-(furan-2-yl)-1,3,4-oxadiazol-2-yl)phenyl)-2-methoxy-5-methylbenzamide]"
34,100,,21,< 100,,,"O=C(Nc1cc(-c2nnc(-c3ccco3)o2)ccc1F)c1cc(Cl)ccc1OC(F)F [Compound 305, 5-Chloro-2-(difluoromethoxy)-N-(2-fluoro-5-(5-(furan-2-yl)-1,3,4-oxadiazol-2-yl)phenyl)benzamide]"
65,100,,24,< 100,97%,,"CCCc1ccc(OC)c(C(=O)Nc2cc(-c3nnc(-c4ccco4)o3)ccc2F)c1 [Compound 281, N-(2-Fluoro-5-(5-(furan-2-yl)-1,3,4-oxadiazol-2-yl)phenyl)-2-methoxy-5-propylbenzamide]"
57,100,,18,< 100,100/100%,,"COc1ccc(Cl)cc1C(=O)Nc1cc(-c2nnc(-c3ccco3)o2)ccc1F [Compound 184, 5-Chloro-N-(2-fluoro-5-(5-(furan-2-yl)-1,3,4-oxadiazol-2-yl)phenyl)-2-methoxybenzamide]"
26,94,,61,,,,"Cc1ccc(OCC(F)(F)F)c(C(=O)Nc2cc(-c3nnc(-c4ccco4)o3)ccc2F)c1 [Compound 322, N-(2-fluoro-5-(5-(furan-2-yl)-1,3,4-oxadiazol-2-yl)phenyl)-5-methyl-2-(2,2,2-trifluoroethoxy)benzamide]"
52,96,,19,< 100,,,"O=C(Nc1cc(-c2nnc(-c3ccco3)o2)ccc1F)c1cc(Cl)ccc1OCC(F)F [Compound 317, 5-Chloro-2-(2,2-difluoroethoxy)-N-(2-fluoro-5-(5-(furan-2-yl)-1,3,4-oxadiazol-2-yl)phenyl)benzamide]"
45,96,,78,,,,"COc1ccc(C(F)(F)F)cc1C(=O)Nc1cc(-c2nnc(-c3ccco3)o2)ccn1 [Compound 396, N-(4-(5-(Furan-2-yl)-1,3,4-oxadiazol-2-yl)pyridin-2-yl)-2-methoxy-5-(trifluoromethyl)benzamide]"
17,96,,34,< 100,,,"O=C(Nc1cc(-c2nnc(-c3ccco3)o2)ccc1F)c1cc(F)ccc1OCC(F)F [Compound 320, 2-(2,2-Difluoroethoxy)-5-fluoro-N-(2-fluoro-5-(5-(furan-2-yl)-1,3,4-oxadiazol-2-yl)phenyl)benzamide]"
75,94,,38,,92%,,"Cc1ccc(OCCF)c(C(=O)Nc2cc(-c3nnc(-c4ccco4)o3)ccc2F)c1 [Compound 321, N-(2-Fluoro-5-(5-(furan-2-yl)-1,3,4-oxadiazol-2-yl)phenyl)-2-(2-fluoroethoxy)-5-methylbenzamide]"
37,100,100,25,< 100,,,"CCCOc1ccc(Cl)cc1C(=O)Nc1cc(-c2nnc(-c3ccco3)o2)ccc1F [Compound 209, 5-Chloro-N-(2-fluoro-5-(5-(furan-2-yl)-1,3,4-oxadiazol-2-yl)phenyl)-2-propoxybenzamide]"
36,95,,29,< 100,,,"O=C(Nc1cc(-c2nnc(-c3ccco3)o2)ccc1F)c1ccccc1OCC(F)F [Compound 314, 2-(2,2-Difluoroethoxy)-N-(2-fluoro-5-(5-(furan-2-yl)-1,3,4-oxadiazol-2-yl)phenyl)benzamide]"
45,98,,19,< 100,,,"COc1ccc(C(F)(F)F)cc1C(=O)Nc1cc(-c2nnc(-c3ccco3)o2)ccc1F [Compound 416, N-(2-Fluoro-5-(5-(furan-2-yl)-1,3,4-oxadiazol-2-yl)phenyl)-2-methoxy-5-(trifluoromethyl)benzamide]"
38,100,,31,< 100,100/100%,,"CCOc1ccc(C)cc1C(=O)Nc1cc(-c2nnc(-c3ccco3)o2)ccc1F [Compound 221, 2-Ethoxy-N-(2-fluoro-5-(5-(furan-2-yl)-1,3,4-oxadiazol-2-yl)phenyl)-5-methylbenzamide]"
,92,100,390,,,,O=C(Nc1cccc(-c2nnc(-c3ccco3)o2)c1)c1cccc(Cl)c1F [Compound 186]
,15,,,,,,"O=C(Nc1cccc(-c2nnc(-c3cc[nH]n3)o2)c1)c1ccccc1F [Compound 298, N-(3-(5-(1H-pyrazol-3-yl)-1,3,4-oxadiazol-2-yl)phenyl)-2-fluorobenzamide]"
,35,,,,,,Cc1ccc(C(=O)Nc2cc(-c3nnc(-c4ccco4)o3)ccc2F)cc1[N+](=O)[O-] [Compound 334]
,93,100,640,,,,O=C(Nc1cccc(-c2nnc(-c3ccco3)o2)c1)c1cc(Br)ccc1F [Compound 188]
,46,,,,42%,,O=C(Nc1cccc(-c2nnc(-c3ccco3)o2)c1)c1cccc(C(F)(F)F)c1 [Compound 234]
,61,,,,61/61%,,O=C(Nc1cccc(-c2nnc(-c3ccco3)o2)c1)c1ccccc1OC(F)(F)F [Compound 232]

# Continued, compound first:
Structure (SMILES),inhibition at 3 µM (ALCAT1 [1]) [%],inhibition at 1 µM (ALCAT1 [2]) [%],inhibition at 10 µM (ALCAT1 [2]) [%],IC50 (ALCAT1 [2]; [3]) [nM],IC50 (ALCAT1 [2]; [4]) [nM],% inh @ 1 μM (ALCAT1 [2]),% inh @ 10 μM (ALCAT1 [2])
"COc1c(Br)cc(Br)cc1C(=O)Nc1cccc(-c2nnc(-c3ccco3)o2)c1 [Compound 168, 3,5-Dibromo-N-(3-(5-(furan-2-yl)-1,3,4-oxadiazol-2-yl)phenyl)-2-methoxybenzamide]",27,100,100,48,,,
O=C(Nc1cccc(-c2nnc(-c3ccco3)o2)c1)c1ccccc1C(F)(F)F [Compound 7],,,3,,,,
O=C(Nc1cc(-c2nnc(-c3ccno3)o2)ccc1F)c1ccccc1F [Compound 139],,50,,,,48%,
Cc1c(NC(=O)c2ccccc2F)cccc1-c1nnc(-c2ccco2)o1 [Compound 78],,42,,,,59%,
O=C(Nc1cccc(-c2nnc(-c3ccco3)o2)c1)c1cccnc1F [Compound 37],,,76,3900,,,87%
O=C(Nc1cccc(-c2nnc(-c3cnco3)o2)c1)c1ccccc1F [Compound 137],,37,,,,48%,
O=C(Nc1cccc(-c2nnc(-c3ccco3)o2)c1)c1ccccc1 [Compound 46],,,,3800,,,43% and 68% and 75%
O=C(Nc1cccc(-c2nnc(-c3ccco3)o2)c1)c1c(F)cccc1F [Compound 143],,13,17,,,,
O=C(Nc1cccc(-c2nnc(-c3ccno3)o2)c1)c1ccccc1F [Compound 42],,23,70,,,,
Cc1ccc(-c2nnc(-c3cccc(NC(=O)c4ccccc4F)c3)o2)o1 [Compound 19],,,2,,,,
"CCOc1ccc(Cl)cc1C(=O)Nc1cccc(-c2nnc(-c3ccco3)o2)c1 [Compound 122, 5-Chloro-2-ethoxy-N-(3-(5-(furan-2-yl)-1,3,4-oxadiazol-2-yl)phenyl)benzamide]",,100,100,39,,,
COc1ccccc1C(=O)Nc1cccc(-c2nnc(-c3ccco3)o2)c1 [Compound 55],,81,100,130,,,
COc1c(C)cccc1C(=O)Nc1cccc(-c2nnc(-c3ccco3)o2)c1 [Compound 182],,33,,,,,
COc1ccc(NC(=O)c2ccccc2F)cc1-c1nnc(-c2ccco2)o1 [Compound 136],,28,,,,23%,
COc1cccc(F)c1C(=O)Nc1cccc(-c2nnc(-c3ccco3)o2)c1 [Compound 179],,17,41,,,,
O=C(O)c1ccccc1C(=O)Nc1cccc(-c2nnc(-c3ccco3)o2)c1 [Compound 11],,,9,,,,
